For one experiment, the target named is T1, hP2X (Homo sapiens, UniProt P51575).
T1 construct: expressed in transfected cells; host or cells: Xenopus oocytes injected with in vitro transcribed RNA
T1 sequence (P51575 1-399): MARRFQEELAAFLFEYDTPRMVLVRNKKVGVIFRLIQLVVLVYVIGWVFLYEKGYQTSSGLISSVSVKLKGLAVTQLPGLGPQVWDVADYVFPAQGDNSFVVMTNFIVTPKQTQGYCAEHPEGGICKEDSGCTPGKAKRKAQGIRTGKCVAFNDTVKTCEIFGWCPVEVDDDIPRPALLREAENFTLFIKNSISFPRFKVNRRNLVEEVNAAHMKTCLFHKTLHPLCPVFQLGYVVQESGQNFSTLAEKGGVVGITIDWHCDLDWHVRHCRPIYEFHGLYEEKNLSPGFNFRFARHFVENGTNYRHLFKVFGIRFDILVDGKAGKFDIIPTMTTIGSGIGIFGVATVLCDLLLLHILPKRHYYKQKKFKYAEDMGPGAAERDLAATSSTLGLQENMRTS
Briefly: inward currents evoked by purinoceptor agonists in Xenopus oocytes expressing hP2X. Type of experiment: cell-based. On the procedure:
Human urinary bladder P2X cDNA, subcloned into the pBKCMV expression vector, was linearized with Notl, and transcribed in vitro with T3 polymerase in the presence of cap analogue m7G(5')ppp(5')G. Defolliculated Xenopus oocytes (Bertrand et al, Electrophysiology of neuronal nicotinic acetylcholine receptors expressed in Xenopus oocytes following nuclear injection of genes or cDNAs Meth Neurosci 4: 174-193 (1991)) were injected with 50 ng of human P2X in vitro transcribed RNA, and incubated at 18° C. for 2-6 days in the ND96 solution (mM): NaCl96, KCl2, MgCl2 1, CaCl2 2, sodium pyruvate 5, HEPES 5, ph 7.6-7.5, penicillin (10 U/ml), and streptomycin (10 μg/ml).
Oocytes were placed in a 1 ml chamber and superfused at 2-3 ml/min with ND96 solution with 0.1 mM BaCl2 replacing the 2 mM CaCl2 to prevent activation of endogenous calcium-activated chloride currents (Barish, A transient calcium-dependent chloride current in the immature Xenopus oocytes J Physiol 342: 309-325 (1983)). Currents were measured using a two-electrode voltage-clamp amplifier (Geneclamp Axon Instruments)at a holding potential of -60 mV. Microelectrodes were filled with 3 M KCl (0.5-2 M.OMEGA.). Data were collected using PClamp software (Axon Instruments). […] Antagonists were applied both in the superfusate and together with ATP in the U-tube solution.
Concentration response curves for purinoceptor agonists were fitted with a Hill slope of 1. […] Data are presented throughout as mean ± SEM for a given number of oocytes.

The subject of experiment [1] is non-transfected CHO cells. The experiment in a line: electrophysiological recording in non-transfected CHO cells (control). Type of experiment: cell-based, chinese hamster. Particulars: up to 30 μM; 45 of 45 cells. An excerpt: CHO cells were stably transfected by a method used for other ion channels (Claudio, Meth. Enzymol. 207 391-408 (1992)). Transfection was confirmed by a) electro-physiological recording and b) radioligand binding. […] [^3 H]αβmethyleneATP binding was more than 600 cpm per million transfected cells with less than 80 cpm nonspecific binding.

In experiment [2] the target is T2, rat vas deferens P2X receptor (Rattus norvegicus, UniProt P47824).
T2 construct: cRNA in Xenopus oocytes; stably transfected CHO cells
T2 sequence (P47824 1-399): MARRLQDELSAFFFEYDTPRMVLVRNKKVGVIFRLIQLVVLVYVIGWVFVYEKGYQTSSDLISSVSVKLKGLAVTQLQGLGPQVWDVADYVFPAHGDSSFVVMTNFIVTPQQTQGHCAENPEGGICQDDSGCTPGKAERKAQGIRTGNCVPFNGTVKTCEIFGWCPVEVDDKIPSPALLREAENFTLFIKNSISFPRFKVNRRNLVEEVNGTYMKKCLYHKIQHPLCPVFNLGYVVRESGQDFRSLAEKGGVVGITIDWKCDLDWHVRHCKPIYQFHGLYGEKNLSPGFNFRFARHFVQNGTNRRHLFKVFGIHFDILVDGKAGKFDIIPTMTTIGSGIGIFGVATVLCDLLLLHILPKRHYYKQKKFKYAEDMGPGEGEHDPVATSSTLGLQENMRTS
The experiment in a line: ATP-evoked currents, rat vas deferens P2X receptor clone in oocytes. Type of experiment: cell-based. Particulars: ATP (>1 μM), second application 10 mins after the first. On the procedure:
50 nl (200 ng) of RNA was injected into defolliculated Xenopus oocytes. After incubation for 2-6 days at 18° C., the oocytes were assayed for ATP-evoked currents by a two-electrode voltage clamp ([…]™); one electrode is to hold the voltage constant (at -100 mV), and the other is to measure the currents. […] Microelectrodes (0.5-2 M.OMEGA.) were filled with 3M KCl.

The next experiment deals with P2X-purinoceptor. Conditions: cited from earlier work.
Where [3] appears, read: ATP higher concentrations (1 μM).

The values below come from patent publication US5985603A, “P2x receptor DNA and protein sequence” (Glaxo Group Limited, priority 1994, dated 1999).

A value given as a limit tells only on which side of the number the result lay.

In the case of `Nc1ncnc2c1ncn2[C@@H]1O[C@H](COP(=O)([O-])OP(=O)([O-])OP(=O)([O-])[O-])[C@@H](O)[C@H]1O.[Mg+2].[Mg+2]` [ATP, adenosine 5'-triphosphate magnesium salt], the “response to repeated application” value on hP2X (100 μM ATP for 5 s every 10 min) is given as “reproducible inward currents”. For the same molecule, on hP2X (ATP), the “reversal of current on washout” value is “returned to control values on washout”. Besides, at hP2X (ATP 30-300 nM), the “time over which responses developed” value fell in the range of 3 to 5 s. Moreover, on hP2X (setting [3]), the “response after 5 s of continued application, of the peak amplitude” value is 40-60 and the “time to peak of response” value is 1 to 1.5 s. Also, the “variation in peak amplitude on repeated application” value on hP2X (ATP up to 1 mM for 5 s every 10 mins) is below 10%. In addition, the “comparison of concentration-effect curves” value on hP2X (ATP, 2MeSATP and 2-chloro-ATP) is “superimposable”. Also, the “agonist profile (rank order)” value on hP2X (oocytes expressing hP2X) was 2MeSATP≥ATP>α,β,-meATP. Moreover, the activation at 10 µM at hP2X (read-out: response to 10 μM ATP, % of peak response to ATP) was around 90%. In addition, the “effect in non-transfected cells” value in experiment [1] is “no effect in 45 of 45 non-transfected cells”. For the same molecule, in experiment [2], the “inward current evoked by second application, of the initial peak amplitude” value is ~ 50%. In addition, the “agonist potency order in whole tissue studies” value in the experiment on P2X-purinoceptor is “α,β,-meATP >>2MeSATP≥ATP”.
